These results are taken from ChEMBL document CHEMBL5385950, “Terpenoids from the Soft Coral Stereonephthya bellissima” (J Nat Prod, 2024).

The species entered for the test is Danio rerio. The experiment in a line: Pro-angiogenesis activity against PTK787 induced vascular injury in Tg(vegfr2: EGFP) zebrafish at 20 uM measured after 24 hrs by fluorescence imaging analysis. The test is classed as functional, organism-based.

The source made the active and inactive calls. No cut-off for these calls is given here.

For `CC(=O)C1=CCC[C@]23O[C@H]2CC[C@](C)(O)[C@@]13C`, the result was Active.
